Reference: US20230172914A1, “BIOMARKER-BASED THERAPEUTIC COMPOSITION” (WELLMARKER BIO CO., LTD., priority 2019, published 2023)
Structures can show the parent of a compound that is named as a salt.

How the values were obtained:
KM12C (RONΔ160) [1] = assay: MTS assay KM12C (Experimental Example 6); assay type: cell-based; conditions: Homo sapiens, 72 hours
Method: In MTS assay for Example 18 and Comparative Example 1, KM12C cell line was seeded at 1,000 cells per well into 96-well plates. After 24 hours, the cells were treated with various concentrations (0.000001 uM to 10 uM) of Example 18 and Comparative Example 1 in 100 ul of 10% FBS-MEM medium (Welgene) per well. Subsequently, the cells were incubated for 72 hours. Then, 20 μl of MTS solution (Promega) was added thereto, and incubation was performed for 2 hours. Then, the absorbance was measured at 490 nm. The IC50 values for Example 18 and Comparative Example 1 were calculated using GraphPad Prism™ 5 to investigate cytotoxicity.

KM12C (RONΔ160) [2] = assay: Cell death-inducing ability, trypan blue exclusion, KM12C; assay type: cell-based, human; conditions: 48 hours
Method: (§1) The cell death-inducing ability of Example 18 and Comparative Example 1 was measured in KM12C with RON mutant (Δ160), a cetuximab-resistant cell line, and Colo320HSR cell line, a cell line not expressing RON. The two colon cancer cell lines were seeded, respectively, onto 60-mm plates at 2×10^5 cells. Then, after 24 hours, while performing medium exchange, the cells were subjected to treatment with the sample compounds at respective concentrations (1 μM, 5 μM) for 48 hours. After 48 hours, the cells and cell suspensions were collected (1,500 rpm, 3 minutes), and live cells and dead cells were quantitated (n=2) through trypan blue (15250-061, Gibco) exclusion assay.

Colo320HSR (RON-) = assay: Cell death-inducing ability, trypan blue exclusion, Colo320HSR; assay type: cell-based; conditions: 48 hours
Method: as §1

KM12C cell line tumor = assay: Efficacy in animal model transplanted with KM12C, 30 and 50 mpk (Experimental Example 11); assay type: in vivo, BALB/c nude mice; conditions: once a day for 2 weeks
Method: 5-Week-old female BALB/c nude mice were purchased and acclimatized for 1 week. Then, human-derived colon cancer cell line KM12C (1.5×10^6 cells/mice) was diluted in PBS, and injected subcutaneously (100 μl) into the right dorsal side of the mice. Comparative Examples 1 and Example 18 were orally administered when the tumor reached a size of about 100 mm^3. The drug was administered at 30 mpk and 50 mpk once a day for 2 weeks, and tumor size and body weight were measured twice a week. […] After completion of the drug administration, the experimental animals were euthanized, and then the tumors were extracted and weighed to perform comparative analysis.

[3] = test system: colon cancer patient tissue (active RON/RON mutant #1: Δ160); assay: Efficacy in animal model transplanted with colon cancer patient tissue, 30 mpk; assay type: in vivo; conditions: 30 mpk for 4 weeks
Method: Example 18 and Comparative Example 1 were administered to an animal model transplanted with the same patient tissue (active RON/RON mutant #1: Δ160) cells as in the animal model transplanted with colon cancer patient tissue tumor cells at 30 mpk for 4 weeks. […] The lower pictures of FIG. 21 show tumors extracted from representative individuals of the respective groups.

RON enzyme = RON enzyme (Homo sapiens, UniProt Q04912); assay: RON activity inhibition assay (ADP-Glo); assay type: biochemical; conditions: 50 uM ATP, G4Y1 peptide substrate
RON enzyme, sequence (Q04912 25-1400): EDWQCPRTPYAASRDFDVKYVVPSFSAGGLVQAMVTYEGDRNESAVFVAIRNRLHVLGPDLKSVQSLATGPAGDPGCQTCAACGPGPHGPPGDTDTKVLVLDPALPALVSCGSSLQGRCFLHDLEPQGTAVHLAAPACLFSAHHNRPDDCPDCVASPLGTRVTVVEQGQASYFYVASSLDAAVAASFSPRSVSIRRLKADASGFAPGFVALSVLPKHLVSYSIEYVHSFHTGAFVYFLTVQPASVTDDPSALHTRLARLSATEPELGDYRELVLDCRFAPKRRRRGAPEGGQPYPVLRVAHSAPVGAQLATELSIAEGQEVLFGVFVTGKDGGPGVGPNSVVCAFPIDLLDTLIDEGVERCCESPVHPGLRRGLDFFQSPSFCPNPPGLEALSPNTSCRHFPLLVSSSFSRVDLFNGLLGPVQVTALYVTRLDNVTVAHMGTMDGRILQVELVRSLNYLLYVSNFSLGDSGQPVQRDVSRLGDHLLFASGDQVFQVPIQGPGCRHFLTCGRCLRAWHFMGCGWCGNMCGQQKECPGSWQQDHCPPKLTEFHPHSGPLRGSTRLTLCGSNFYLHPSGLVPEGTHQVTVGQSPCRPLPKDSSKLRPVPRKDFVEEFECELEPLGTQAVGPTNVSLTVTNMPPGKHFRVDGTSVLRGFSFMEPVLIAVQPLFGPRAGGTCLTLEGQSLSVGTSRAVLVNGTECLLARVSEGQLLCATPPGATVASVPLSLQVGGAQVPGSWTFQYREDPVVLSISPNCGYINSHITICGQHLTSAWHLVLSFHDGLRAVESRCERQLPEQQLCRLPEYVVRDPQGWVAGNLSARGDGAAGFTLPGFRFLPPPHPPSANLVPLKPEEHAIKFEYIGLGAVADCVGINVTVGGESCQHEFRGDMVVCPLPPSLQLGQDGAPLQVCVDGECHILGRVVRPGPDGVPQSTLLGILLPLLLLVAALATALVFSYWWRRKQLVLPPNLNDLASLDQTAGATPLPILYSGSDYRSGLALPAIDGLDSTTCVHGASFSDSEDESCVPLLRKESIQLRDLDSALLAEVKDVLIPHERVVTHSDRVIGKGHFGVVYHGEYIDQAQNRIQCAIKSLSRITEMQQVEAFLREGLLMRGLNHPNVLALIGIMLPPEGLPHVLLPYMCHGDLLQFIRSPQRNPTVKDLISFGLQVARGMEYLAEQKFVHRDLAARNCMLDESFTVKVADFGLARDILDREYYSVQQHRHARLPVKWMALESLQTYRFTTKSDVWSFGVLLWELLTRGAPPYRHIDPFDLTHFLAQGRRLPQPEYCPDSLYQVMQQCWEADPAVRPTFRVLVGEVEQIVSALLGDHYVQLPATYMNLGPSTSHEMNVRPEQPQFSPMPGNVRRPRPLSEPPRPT
Method: Enzymatic reaction was allowed to proceed using 2 ng/uL of 250 uM G4Y1 peptide, which serves as a substrate for RON enzyme, and 50 uM ATP in assay buffer (40 mM Tris-HCl, pH 7.5, 20 mM MgCl2, 0.1 mg/mL bovine serum albumin, 50 uM DTT). The resultant was subjected to treatment with the compounds prepared in the examples and the comparative examples at various concentrations, and reaction was allowed to proceed at room temperature for 1 hour. Then, ADP-Glo™ Reagent and Kinase Detection Reagent were sequentially added thereto, and reaction was allowed to proceed at room temperature for 40 minutes and 30 minutes, respectively.
Subsequently, luminescence was measured using Wallaac Victor 2TM (PerkinElmer Life Sciences, 1420-042). Data were analyzed with the measured RLU values to verify activity of the RON inhibitors. The RLU value of a sample which was not treated with the compound was set as a 100% control, and the activity of the RON inhibitor was evaluated as a percentage of residual activity of the RON enzyme in the sample that was treated with the compound at the concentration to be tested.

[4] = test system: MKN45 cell line (cell line expressing active RON); assay: Cell growth inhibition MTS assay on MKN45; assay type: cell-based; conditions: Homo sapiens, MKN-45, 48 hours, read-out: Growth inhibitory capacity on MKN45 cells, IC50
Method: MTS assay was performed to identify whether the compound according to the present invention has a cancer cell proliferation inhibitory effect through inhibition of extracellular signal-regulated kinase activity.
The following assay was performed on MKN45 cell line (cell line expressing active RON), a human gastric cancer cell line. The MKN45 cell line was dispensed at a concentration of 5,000 cells/well in a 96-well plate containing RPMI-1640 medium (Gibco, Invitrogen) containing 10% FBS, and then the plate was incubated for 24 hours at a condition of 5% CO2 and 37° C. Then, the respective wells were subjected to treatment with the compounds prepared in the examples, each of which was sequentially diluted from its high concentration of 10 μM. For a solvent control, the respective wells were subjected to treatment with dimethyl sulfoxide (DMSO) at the same concentrations (% (v/v)) to those used for the treatment with the compounds. Then, the respective cells were incubated for 48 hours.
In order to identify degree of viability of the cells, a mixture of MTS and phenazine methosulfate (PMS) provided in CellTiter 96 AQuous Non-Radioactive Cell Proliferation Assay Kit (Promega) was added to each cultured cell medium. Additional incubation was performed at a condition of 37° C. for 2 hours and 30 minutes. Then, absorbance was measured at 490 nm. […] In the following, A represents <10 nM, B represents 10 to 50 nM, and C represents >50 nM.

IC50 [4] | Structure (SMILES) | also measured
 | CCOc1ccn(-c2ccc(F)cc2)c(=O)c1C(=O)Nc1ccc(Oc2ccnc(N)c2Cl)c(F)c1 [Comparative Example 1, N-{4-[(2-amino-3-chloro-4-pyridinyl)oxy]-3-fluorophenyl}-4-ethoxy-1-(4-fluorophenyl)-2-oxo-1,2-dihydro-3-pyridinecarboxamide, reference compound] | IC50 (KM12C (RONΔ160) [1]): 358 nM; Cell death, KM12C (RONΔ160) (KM12C (RONΔ160) [2]; 1 μM): 11.7; Cell death, KM12C (RONΔ160) (KM12C (RONΔ160) [2]; 5 μM): 21.1; Cell death, Colo320HSR (RON-) (Colo320HSR (RON-); 1 μM): 5.9; Cell death, Colo320HSR (RON-) (Colo320HSR (RON-); 5 μM): 8.2; TGI (%) (KM12C cell line tumor; 30 mg/kg oral): 82.4%; TGI (%) (KM12C cell line tumor; 50 mg/kg oral): 83.7%; tumor growth inhibition efficacy (KM12C cell line tumor; 30 mpk and 50 mpk oral): very high tumor growth inhibition efficacy; tumor growth inhibition efficacy [3]: about 18%
< 10 nM | CCOc1ccn(-c2ccc(F)cc2)c(=O)c1C(=O)Nc1ccc(Oc2ccnc3cc(-c4cn(C)cn4)sc23)c(F)c1 [Example 1, 4-ethoxy-N-(3-fluoro-4-(2-(1-methyl-1H-imidazol-4-yl)thieno[3,2-b]pyridine-7-yloxy)phenyl)-1-(4-fluorophenyl)-2-oxo-1,2-dihydropyridine-3-carboxamide] | IC50 (RON enzyme): 11.1 nM
> 50 nM | CCOc1ccn(C)c(=O)c1C(=O)Nc1ccc(Oc2ccnc3cc(-c4cn(C)cn4)sc23)c(F)c1 [Example 2, 4-ethoxy-N-(3-fluoro-4-(2-(1-methyl-1H-imidazol-4-yl)thieno[3,2-b]pyridine-7-yloxy)phenyl)-1-methyl-2-oxo-1,2-dihydropyridine-3-carboxamide] | 
10 to 50 nM | CCOc1ccn(-c2ccc(F)cc2)c(=O)c1C(=O)Nc1ccc(Oc2ccnc3cc(-c4nccn4C)sc23)c(F)c1 [Example 3, 4-ethoxy-N-(3-fluoro-4-(2-(1-methyl-1H-imidazol-2-yl)thieno[3,2-b]pyridine-7-yloxy)phenyl)-1-(4-fluorophenyl)-2-oxo-1,2-dihydropyridine-3-carboxamide] | 
10 to 50 nM | CCOc1ccn(-c2ccc(F)cc2)c(=O)c1C(=O)Nc1ccc(Oc2ccnc3cc(-c4cnn(C)c4)sc23)c(F)c1 [Example 4, 4-ethoxy-N-(3-fluoro-4-(2-(1-methyl-1H-pyrazol-4-yl)thieno[3,2-b]pyridine-7-yloxy)phenyl)-1-(4-fluorophenyl)-2-oxo-1,2-dihydropyridine-3-carboxamide] | 
10 to 50 nM | CCOc1ccn(-c2ccc(F)cc2)c(=O)c1C(=O)Nc1ccc(Oc2ccnc3cc(-c4ccccn4)sc23)c(F)c1 [Example 5, 4-ethoxy-N-(3-fluoro-4-(2-(pyridin-2-yl)thieno[3,2-b]pyridin-7-yloxy)phenyl)-1-(4-fluorophenyl)-2-oxo-1,2-dihydropyridine-3-carboxamide] | IC50 (RON enzyme): 8.8 nM
10 to 50 nM | CCOc1ccn(-c2ccc(F)cc2)c(=O)c1C(=O)Nc1ccc(Oc2ccnc3cc(-c4cccnc4)sc23)c(F)c1 [Example 6, 4-ethoxy-N-(3-fluoro-4-(2-(pyridin-3-yl)thieno[3,2-b]pyridin-7-yloxy)phenyl)-1-(4-fluorophenyl)-2-oxo-1,2-dihydropyridine-3-carboxamide] | 
> 50 nM | CCOc1ccn(-c2ccc(F)cc2)c(=O)c1C(=O)Nc1ccc(Oc2ccnc3cc(-c4nccs4)sc23)c(F)c1 [Example 7, 4-ethoxy-N-(3-fluoro-4-(2-(thiazol-2-yl)thieno[3,2-b]pyridin-7-yloxy)phenyl)-1-(4-fluorophenyl)-2-oxo-1,2-dihydropyridine-3-carboxamide] | 
> 50 nM | CCOc1ccn(Cc2ccc(F)cc2)c(=O)c1C(=O)Nc1ccc(Oc2ccnc3cc(-c4cn(CC)cn4)sc23)c(F)c1 [Example 8, 4-ethoxy-N-(4-(2-(1-ethyl-1H-imidazol-4-yl)thieno[3,2-b]pyridin-7-yloxy)-3-fluorophenyl)-1-(4-fluorobenzyl)-2-oxo-1,2-dihydropyridine-3-carboxamide] | 
10 to 50 nM | COCn1cnc(-c2cc3nccc(Oc4ccc(NC(=O)c5c(OC)ccn(-c6ccccc6)c5=O)cc4F)c3s2)c1 [Example 9, 4-methoxy-N-(3-fluoro-4-(2-(1-(methoxymethyl)-1H-imidazol-4-yl)thieno[3,2-b]pyridin-7-yloxy)phenyl)-1-phenyl-2-oxo-1,2-dihydropyridine-3-carboxamide] | 
> 50 nM | CCOc1ccn(-c2ccc(F)cc2)c(=O)c1C(=O)Nc1ccc(Oc2ccnc3cc(CN4CCNCC4)sc23)c(F)c1 [Example 10, 4-ethoxy-N-(3-fluoro-4-(2-(piperazin-1-ylmethyl)thieno[3,2-b]pyridin-7-yloxy)phenyl)-1-(4-fluorophenyl)-2-oxo-1,2-dihydropyridine-3-carboxamide hydrochloride] | 
> 50 nM | CCOc1ccn(-c2ccc(F)cc2)c(=O)c1C(=O)Nc1ccc(Oc2ccnc3cc(CN4CCN(C)CC4)sc23)c(F)c1 [Example 11, 4-ethoxy-N-(3-fluoro-4-(2-((4-methylpiperazin-1-yl)methyl)thieno[3,2-b]pyridine-7-yloxy)phenyl)-1-(4-fluorophenyl)-2-oxo-1,2-dihydropyridine-3-carboxamide] | 
